One assay deals with ATM (Homo sapiens (Human), UniProt Q13315). The assay can be described thus: ATM in Cell Western Assay (pKAP1 in etoposide-treated MCF-7 cells). The assay is classed as cell-based. The conditions noted are these: pKAP1 in etoposide-treated MCF-7 cells. The method in brief:
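Cells received compounds in a 10-dose, 3-fold series from a 1 μM final top concentration, then 100 μM etoposide, for 1 hr at 37° C. They were then fixed with paraformaldehyde and permeabilized with 0.1% Triton X-100. After immunostaining, plates were scanned on an infrared imager.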

The target of the next assay is DNA-PK (Homo sapiens (Human), UniProt P78527). The assay can be described thus: DNA-PK Enzyme-Linked Immunosorbent Assay (phosphorylation of GST-p53 (1-101) peptide). It counts as biochemical. The following applies: ELISA, 20 μM ATP. The method in brief:
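ELISA with plate-bound GST-p53 (1-101) phosphorylated by DNA-PK (0.1 μg/mL final) with 20 μM ATP for 1 h at 25 °C. Compounds tested over 10 3-fold doses from 100 nM top final. Phospho-p53 Ser15 detected by antibody, HRP and TMB, absorbance at 450 nm.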

Structures can show the parent of a compound that is named as a salt.

Sequence of ATM (Q13315 whole entry): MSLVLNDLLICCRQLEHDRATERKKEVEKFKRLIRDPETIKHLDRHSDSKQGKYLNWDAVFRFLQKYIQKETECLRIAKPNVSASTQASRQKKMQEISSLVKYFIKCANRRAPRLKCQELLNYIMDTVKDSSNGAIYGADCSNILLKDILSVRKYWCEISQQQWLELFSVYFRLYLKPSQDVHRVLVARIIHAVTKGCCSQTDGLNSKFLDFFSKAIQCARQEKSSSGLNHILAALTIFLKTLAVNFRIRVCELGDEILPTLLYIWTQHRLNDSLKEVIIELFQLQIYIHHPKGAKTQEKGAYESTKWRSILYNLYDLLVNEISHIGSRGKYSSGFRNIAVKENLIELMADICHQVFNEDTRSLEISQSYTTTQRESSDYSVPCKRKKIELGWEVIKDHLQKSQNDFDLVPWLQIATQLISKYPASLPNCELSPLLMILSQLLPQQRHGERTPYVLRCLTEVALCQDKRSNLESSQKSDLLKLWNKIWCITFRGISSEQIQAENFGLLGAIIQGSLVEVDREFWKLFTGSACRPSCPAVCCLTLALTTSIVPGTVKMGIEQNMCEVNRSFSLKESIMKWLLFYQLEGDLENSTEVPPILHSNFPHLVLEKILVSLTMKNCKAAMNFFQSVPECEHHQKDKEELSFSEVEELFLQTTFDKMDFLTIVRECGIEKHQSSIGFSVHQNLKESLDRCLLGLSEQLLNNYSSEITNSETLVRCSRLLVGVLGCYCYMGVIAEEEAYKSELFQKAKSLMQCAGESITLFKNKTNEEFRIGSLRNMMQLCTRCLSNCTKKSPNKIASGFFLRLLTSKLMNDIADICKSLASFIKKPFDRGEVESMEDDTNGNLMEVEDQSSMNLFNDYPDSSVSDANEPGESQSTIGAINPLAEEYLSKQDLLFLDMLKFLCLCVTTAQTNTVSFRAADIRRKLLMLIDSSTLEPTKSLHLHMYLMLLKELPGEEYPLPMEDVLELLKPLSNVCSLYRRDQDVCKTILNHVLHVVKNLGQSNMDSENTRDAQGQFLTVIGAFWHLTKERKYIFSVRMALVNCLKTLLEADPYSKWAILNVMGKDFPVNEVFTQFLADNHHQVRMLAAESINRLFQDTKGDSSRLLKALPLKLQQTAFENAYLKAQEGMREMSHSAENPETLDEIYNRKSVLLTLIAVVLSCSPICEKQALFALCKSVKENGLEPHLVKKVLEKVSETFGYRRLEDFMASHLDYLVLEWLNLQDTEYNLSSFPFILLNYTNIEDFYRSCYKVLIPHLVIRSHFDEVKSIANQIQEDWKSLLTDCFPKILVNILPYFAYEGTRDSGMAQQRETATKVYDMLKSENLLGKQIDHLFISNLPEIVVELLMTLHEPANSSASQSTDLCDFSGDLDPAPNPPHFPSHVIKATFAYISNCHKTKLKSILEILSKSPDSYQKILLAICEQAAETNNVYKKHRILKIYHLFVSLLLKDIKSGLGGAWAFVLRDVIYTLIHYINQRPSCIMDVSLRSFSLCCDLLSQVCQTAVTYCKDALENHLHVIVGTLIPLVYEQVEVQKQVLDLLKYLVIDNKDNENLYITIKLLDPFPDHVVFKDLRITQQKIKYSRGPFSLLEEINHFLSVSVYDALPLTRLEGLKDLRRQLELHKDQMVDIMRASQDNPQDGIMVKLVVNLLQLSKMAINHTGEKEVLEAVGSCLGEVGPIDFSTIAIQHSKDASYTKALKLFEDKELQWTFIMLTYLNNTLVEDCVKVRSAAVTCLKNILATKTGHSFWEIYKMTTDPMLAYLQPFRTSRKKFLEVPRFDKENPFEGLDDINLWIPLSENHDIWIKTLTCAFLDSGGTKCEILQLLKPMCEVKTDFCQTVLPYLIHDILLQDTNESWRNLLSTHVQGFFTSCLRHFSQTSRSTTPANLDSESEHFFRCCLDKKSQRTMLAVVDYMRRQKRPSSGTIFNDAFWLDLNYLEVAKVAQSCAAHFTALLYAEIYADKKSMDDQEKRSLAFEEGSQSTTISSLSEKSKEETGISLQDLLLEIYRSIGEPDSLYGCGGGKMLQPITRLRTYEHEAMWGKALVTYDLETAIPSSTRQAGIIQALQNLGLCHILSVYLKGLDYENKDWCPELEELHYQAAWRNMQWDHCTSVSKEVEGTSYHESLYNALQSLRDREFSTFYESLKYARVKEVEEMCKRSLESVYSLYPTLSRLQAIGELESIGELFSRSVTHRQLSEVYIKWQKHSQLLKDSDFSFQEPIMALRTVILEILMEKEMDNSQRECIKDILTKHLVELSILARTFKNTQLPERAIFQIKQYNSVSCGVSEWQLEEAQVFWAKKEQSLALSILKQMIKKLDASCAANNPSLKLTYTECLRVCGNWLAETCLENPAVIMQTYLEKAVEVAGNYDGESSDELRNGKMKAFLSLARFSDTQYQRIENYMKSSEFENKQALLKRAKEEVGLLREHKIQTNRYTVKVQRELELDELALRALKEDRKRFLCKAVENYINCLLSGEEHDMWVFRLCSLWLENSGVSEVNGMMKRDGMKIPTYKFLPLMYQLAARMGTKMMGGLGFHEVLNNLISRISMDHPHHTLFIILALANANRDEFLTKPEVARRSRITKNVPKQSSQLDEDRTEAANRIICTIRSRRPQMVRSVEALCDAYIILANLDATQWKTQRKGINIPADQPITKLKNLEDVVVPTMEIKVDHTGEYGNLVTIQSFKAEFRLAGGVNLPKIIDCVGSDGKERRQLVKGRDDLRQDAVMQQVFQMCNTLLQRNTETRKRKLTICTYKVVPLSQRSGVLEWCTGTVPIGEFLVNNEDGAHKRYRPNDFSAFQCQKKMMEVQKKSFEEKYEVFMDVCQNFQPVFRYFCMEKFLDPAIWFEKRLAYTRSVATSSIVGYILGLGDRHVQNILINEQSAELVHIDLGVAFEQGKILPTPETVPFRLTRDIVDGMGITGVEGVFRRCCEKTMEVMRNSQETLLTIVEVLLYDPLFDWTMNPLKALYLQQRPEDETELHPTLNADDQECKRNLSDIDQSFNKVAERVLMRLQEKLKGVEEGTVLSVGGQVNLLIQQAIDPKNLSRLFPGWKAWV

On to `CC(C)NCCOc1ncc(-c2cc3c4c(cnc3cc2F)N(C)C(=O)C42CN(C3CCC3)C2)cc1NS(C)(=O)=O` [Example 497, N-(5-(1-Cyclobutyl-7′-fluoro-3′-methyl-2′-oxo-2′,3′-dihydrospiro[azetidine-3,1′-pyrrolo[2,3-c]quinolin]-8′-yl)-2-(2-(isopropylamino)ethoxy)pyridin-3-yl)methanesulfonamide hydrochloride], for which the IC50 on ATM and against DNA-PK was 1 to 100 nM each time.
For `CC(C)NCCOc1ncc(-c2cc3c4c(cnc3cc2F)N(C)C(=O)C42CN(C3CCCC3)C2)cc1NS(C)(=O)=O` [Example 498, N-(5-(1-Cyclopentyl-7′-fluoro-3′-methyl-2′-oxo-2′,3′-dihydrospiro[azetidine-3,1′-pyrrolo[2,3-c]quinolin]-8′-yl)-2-(2-(isopropylamino)ethoxy)pyridin-3-yl)methanesulfonamide], the IC50 (as a rule, the concentration that gives 50% inhibition) is 1 to 100 nM against ATM and 0.5 to 1 nM at DNA-PK.
For the molecule `CC(C)NCCOc1ncc(-c2cc3c4c(cnc3cc2F)N(C)C(=O)C42CN(c3ccccc3)C2)cc1NS(C)(=O)=O` [Example 519, N-(5-(7′-Fluoro-3′-methyl-2′-oxo-1-phenyl-2′,3′-dihydrospiro[azetidine-3,1′-pyrrolo[2,3-c]quinolin]-8′-yl)-2-(2-(isopropylamino)ethoxy)pyridin-3-yl)methanesulfonamide hydrochloride], the figures for the IC50 against ATM and against DNA-PK were 1 to 100 nM and < 0.5 nM, respectively.
In the same order, the values of `Cc1ncc(S(=O)(=O)Nc2cc(-c3cc4c5c(cnc4cc3F)N(C)C(=O)C53CN(c4ccccc4)C3)cnc2OCCNC(C)C)s1` [Example 520, N-(5-(7′-Fluoro-3′-methyl-2′-oxo-1-phenyl-2′,3′-dihydrospiro[azetidine-3,1′-pyrrolo[2,3-c]quinolin]-8′-yl)-2-(2-(isopropylamino)ethoxy)pyridin-3-yl)-2-methylthiazole-5-sulfonamide] are 1 to 100 nM and 1 to 100 nM.
For the molecule `CCS(=O)(=O)Nc1cc(-c2cc3c4c(cnc3cc2F)N(C)C(=O)C42CN(c3ccccc3)C2)cnc1OCCNC(C)C` [Example 522, N-(5-(7′-Fluoro-3′-methyl-2′-oxo-1-phenyl-2′,3′-dihydrospiro[azetidine-3,1′-pyrrolo[2,3-c]quinolin]-8′-yl)-2-(2-(isopropylamino)ethoxy)pyridin-3-yl)ethanesulfonamide hydrochloride], the IC50 against ATM is 1 to 100 nM; on DNA-PK, 0.5 to 1 nM.
For the molecule `CC(C)NCCOc1ncc(-c2cc3c4c(cnc3cc2F)N(C)C(=O)C42CN(c3ccc(Cl)cc3)C2)cc1NS(C)(=O)=O` [Example 523, N-(5-(1-(4-Chlorophenyl)-7′-fluoro-3′-methyl-2′-oxo-2′,3′-dihydrospiro[azetidine-3,1′-pyrrolo[2,3-c]quinolin]-8′-yl)-2-(2-(isopropylamino)ethoxy)pyridin-3-yl)methanesulfonamide hydrochloride], the IC50 was 1 to 100 nM against ATM and < 0.5 nM at DNA-PK.
In the case of `CC(C)NCCOc1ncc(-c2cc3c4c(cnc3cc2F)N(C)C(=O)C42CN(c3cccc(Cl)c3)C2)cc1NS(C)(=O)=O` [Example 524, N-(5-(1-(3-Chlorophenyl)-7′-fluoro-3′-methyl-2′-oxo-2′,3′-dihydrospiro[azetidine-3,1′-pyrrolo[2,3-c]quinolin]-8′-yl)-2-(2-(isopropylamino)ethoxy)pyridin-3-yl)methanesulfonamide], the IC50 against ATM and against DNA-PK was 1 to 100 nM each time.
On to `CC(C)NCCOc1ncc(-c2cc3c4c(cnc3cc2F)N(C)C(=O)C42CN(c3ccccc3Cl)C2)cc1NS(C)(=O)=O` [Example 525, N-(5-(1-(2-Chlorophenyl)-7′ fluoro-3′-methyl-2′-oxo-2′,3′-dihydrospiro[azetidine-3,1′-pyrrolo[2,3-c]quinolin]-8′-yl)-2-(2-(isopropylamino)ethoxy)pyridin-3-yl)methanesulfonamide], for which the results for the IC50 against ATM and at DNA-PK were 1 to 100 nM and 0.5 to 1 nM, respectively.
Regarding `Cc1ccc(N2CC3(C2)C(=O)N(C)c2cnc4cc(F)c(-c5cnc(OCCNC(C)C)c(NS(C)(=O)=O)c5)cc4c23)cc1` [Example 526, N-(5-(7′-Fluoro-3′-methyl-2′-oxo-1-(p-tolyl)-2′,3′-dihydrospiro[azetidine-3,1′-pyrrolo[2,3-c]quinolin]-8′-yl)-2-(2-(isopropylamino)ethoxy)pyridin-3-yl)methanesulfonamide hydrochloride], the results for the IC50 against ATM and at DNA-PK were 1 to 100 nM and < 0.5 nM, respectively.
Turning to `Cc1cccc(N2CC3(C2)C(=O)N(C)c2cnc4cc(F)c(-c5cnc(OCCNC(C)C)c(NS(C)(=O)=O)c5)cc4c23)c1` [Example 527, N-(5-(7′-Fluoro-3′-methyl-2′-oxo-1-(m-tolyl)-2′,3′-dihydrospiro[azetidine-3,1′-pyrrolo[2,3-c]quinolin]-8′-yl)-2-(2-(isopropylamino)ethoxy)pyridin-3-yl)methanesulfonamide], the IC50 on ATM and on DNA-PK was 1 to 100 nM each time.
For the molecule `Cc1ccccc1N1CC2(C1)C(=O)N(C)c1cnc3cc(F)c(-c4cnc(OCCNC(C)C)c(NS(C)(=O)=O)c4)cc3c12` [Example 528, N-(5-(7′-Fluoro-3′-methyl-2′-oxo-1-(o-tolyl)-2′,3′-dihydrospiro[azetidine-3,1′-pyrrolo[2,3-c]quinolin]-8′-yl)-2-(2-(isopropylamino)ethoxy)pyridin-3-yl)methanesulfonamide], the IC50 against ATM was 1 to 100 nM; against DNA-PK it was < 0.5 nM.
Turning to `CCc1ccc(N2CC3(C2)C(=O)N(C)c2cnc4cc(F)c(-c5cnc(OCCNC(C)C)c(NS(C)(=O)=O)c5)cc4c23)cc1` [Example 529, N-(5-(1-(4-Ethylphenyl)-7′-fluoro-3′-methyl-2′-oxo-2′,3′-dihydrospiro[azetidine-3,1′-pyrrolo[2,3-c]quinolin]-8′-yl)-2-(2-(isopropylamino)ethoxy)pyridin-3-yl)methanesulfonamide], the IC50 against ATM and against DNA-PK was 1 to 100 nM each time.
Take `CC(C)NCCOc1ncc(-c2cc3c4c(cnc3cc2F)N(C)C(=O)C42CN(c3ccc(C(C)C)cc3)C2)cc1NS(C)(=O)=O` [Example 530, N-(5-(7′-Fluoro-1-(4-isopropylphenyl)-3 methyl-2′-oxo-2′,3′-dihydrospiro [azetidine-3,1′-pyrrolo[2,3-c]quinolin]-8′-yl)-2-(2-(isopropylamino)ethoxy)pyridin-3-yl)methanesulfonamide]: the values for the concentration for half-maximal inhibition (IC50) on ATM and at DNA-PK were 1 to 100 nM and 0.5 to 1 nM, respectively.
In the same order, the values of `COCc1ccc(N2CC3(C2)C(=O)N(C)c2cnc4cc(F)c(-c5cnc(OCCNC(C)C)c(NS(C)(=O)=O)c5)cc4c23)cc1` [Example 532, N-(5-(7′-Fluoro-1-(4-(methoxymethyl)phenyl)-3′-methyl-2′-oxo-2′,3′-dihydrospiro[azetidine-3,1′-pyrrolo[2,3-c]quinolin]-8′-yl)-2-(2-(isopropylamino)ethoxy)pyridin-3-yl)methanesulfonamide] are 1 to 100 nM and < 0.5 nM.
For the molecule `COc1ccc(N2CC3(C2)C(=O)N(C)c2cnc4cc(F)c(-c5cnc(OCCNC(C)C)c(NS(C)(=O)=O)c5)cc4c23)cc1` [Example 533, N-(5-(7′-Fluoro-1-(4-methoxyphenyl)-3 methyl-2′-oxo-2′,3′-dihydrospiro [azetidine-3,1′-pyrrolo[2,3-c]quinolin]-8′-yl)-2-(2-(isopropylamino)ethoxy)pyridin-3-yl)methanesulfonamide], the IC50 against ATM and on DNA-PK was 1 to 100 nM throughout.

The record behind these values is patent US12187742B2 (XRAD Therapeutics, Inc., priority 2018, dated 2025).
